Assay results taken from ChEMBL document CHEMBL1138331, “Potent antimalarial activity of 2-aminopyridinium salts, amidines, and guanidines” (J Med Chem, 2007).

Columns and labels:
[1] = physchem
Description: Dissociation constant, pKa by potentiometric titration

[2] = tested on: Plasmodium falciparum; assay: microbe, parasite or virus in culture; details: Nigerian, 48 h
Description: Antimalarial activity against Plasmodium falciparum Nigerian in human erythrocytes after 48 hrs

| pKa [1] | IC50 [2] [nM] | SMILES |
| --- | --- | --- |
| 7.6 | 52000 | CCOC(=N)CCCCCCCCCCCCC(=N)OCC |
| 12.8 | 1.4 | Nc1ccc(Cl)c[n+]1CCCCCCCCCCCC[n+]1cc(Cl)ccc1N |
| 9.4 | 450 | N=c1n(CCCCCCCCCCCCn2c(=N)n(Cc3ccccc3)c3ccccc32)c2ccccc2n1Cc1ccccc1 |
|  | 540 | CCN(CC)CCCCCCCCCCCCN(CC)CC |
|  | 110 | CCN(CC)CCCCCCCCCCCCCCCCN(CC)CC |
|  | 110 | C(CCCCCCCCN1CCCC1)CCCCCCCN1CCCC1 |
|  | 160 | OCC1CCCN1CCCCCCCCCCCCCCCCN1CCCC1CO (stereo unspecified) |
|  | 1.5 | C[N+]1(CCCCCCCCCCCCCCCC[N+]2(C)CCCC2CO)CCCC1CO (stereo unspecified) |
|  | 3.3 | CC[N+](CC)(CC)CCOCCCCCCCCCCCCOCC[N+](CC)(CC)CC |
|  | 1550 | CCCCCCCCCCCC[n+]1ccc(C)cc1N |
| 12.8 | 13 | Nc1ccc(-c2ccccc2)c[n+]1CCCc1ccc(CCC[n+]2cc(-c3ccccc3)ccc2N)cc1 |
|  | 7.2 | Cc1cc[n+](CCCCCCCC[n+]2ccc(C)cc2N)c(N)c1 |
| 13.5 | 0.5 | Cc1cc[n+](CCCCCCCCCCCC[n+]2ccc(C)cc2N)c(N)c1 |
| 13.3 | 1.8 | Cc1ccc[n+](CCCCCCCCCCCC[n+]2cccc(C)c2N)c1N |
|  | 4000 | N=c1sc2ccccc2n1CCCCCCCCCCCCn1c(=N)sc2ccccc21 |
| 13.6 | 3.8 | Cc1cc[n+](CCCCCCCCCCCCCCCC[n+]2ccc(C)cc2N)c(N)c1 |
| 11.9 | 65 | Cn1c(=N)n(CCCCCCCCCCCCn2c(=N)n(C)c3ccccc32)c2ccccc21 |
| 13 | 0.5 | Cc1ccc(N)[n+](CCCCCCCCCCCC[n+]2cc(C)ccc2N)c1 |
|  | 5400 | FC(F)(F)c1ccc(OCC2CCCN2CCCCCCCCCCCCCCCCN2CCCC2COc2ccc(C(F)(F)F)cc2)cc1 (stereo unspecified) |
|  | 29 | C[N+]1(CCCCCCCCCCCCCCCC[N+]2(C)CCCC2COc2ccc(C(F)(F)F)cc2)CCCC1COc1ccc(C(F)(F)F)cc1 (stereo unspecified) |

| pKa [1] | IC50 [2] [nM] | SMILES |
| --- | --- | --- |
| 9.8 | 1650 | c1c[nH]c(CCCCCCCCCCCCc2ncc[nH]2)n1 |
| 9 | 1800 | c1ccc2[nH]c(CCCCCCCCCCCCc3nc4ccccc4[nH]3)nc2c1 |
|  | 2000 | c1cn(CCCCCCCCCCCCn2ccnc2)cn1 |
| 12.1 | 3.8 | C(CCCCCCNC1=NCCC1)CCCCCNC1=NCCC1 |
| 12.7 | 3 | C(CCCCCCNC1=NCCCC1)CCCCCNC1=NCCCC1 |
|  | 2.2 | C(CCCCCCNC1=NCCCCC1)CCCCCNC1=NCCCCC1 |
| 12.6 | 2 | CC(=N)NCCCCCCCCCCCCNC(C)=N |
|  | 1 | CC1CN=C(CCCCCCCCCCCCC2=NCC(C)N2)N1 (stereo unspecified) |
|  | 1 | CC1(C)CN=C(CCCCCCCCCCCCC2=NCC(C)(C)N2)N1 |
|  | 3 | C(CCCCCCC1=NC2CCCCC2N1)CCCCCC1=NC2CCCCC2N1 (stereo unspecified) |
|  | 21 | C(CCCCCCN/C(=N\C1CCCCC1)NC1CCCCC1)CCCCCN/C(=N\C1CCCCC1)NC1CCCCC1 |
| 13.2 | 100 | N=C(N)CCCCCCCCCCCCCCCCC(=N)N |
| 11 | 43 | CN1CCN=C1CCCCCCCCCCCCC1=NCCN1C |
| 12.8 | 6.3 | CN(C)C(=N)CCCCCCCCCCCCC(=N)N(C)C |
| 13.1 | 2.3 | C(CCCCCCC1=NCCCN1)CCCCCC1=NCCCN1 |
| 13.2 | 0.8 | N=C(CCCCCCCCCCCCC(=N)N1CCCC1)N1CCCC1 |
| 12.6 | 4.9 | N=C(CCCCCCCCCCCCC(=N)N1CCCCC1)N1CCCCC1 |
| 12.6 | 4.5 | Nc1cc(-c2ccccc2)cc[n+]1CCCc1ccc(CCC[n+]2ccc(-c3ccccc3)cc2N)cc1 |
|  | 4 | N=C1CCCN1CCCCCCCCCCCCN1CCCC1=N |
|  | 120 | CCN(CC)CCOCCCCCCCCCCCCOCCN(CC)CC |

| pKa [1] | IC50 [2] [nM] | SMILES |
| --- | --- | --- |
| 12.6 | 2.9 | Cc1cc[n+](CCCc2ccc(CCC[n+]3ccc(C)cc3N)cc2)c(N)c1 |
| 13 | 2 | C(CCCCCCC1=NCCN1)CCCCCC1=NCCN1 |
|  | 270 | Cc1nccn1CCCCCCCCCCCCn1ccnc1C |
|  | 0.35 | N=C(N)NCCCCCCCCCCCCNC(=N)N |
|  | 0.5 | C(CCCCCCNC1=NCCCN1)CCCCCNC1=NCCCN1 |
| 10.1 | 800 | N=c1sccn1CCCCCCCCCCCCn1ccsc1=N |
|  | 0.6 | CC1(C)CN=C(NCCCCCCCCCCCCNC2=NCCCN2)NC1 |
|  | 8500 | CN(C)/C(=N\C#N)NCCCCCCCCCCCCN/C(=N\C#N)N(C)C |
| 11.1 | 260 | N=c1c2ccccc2ccn1CCCCCCCCCCCCn1ccc2ccccc2c1=N |
| 8.1 | 5600 | Cc1ccc(-c2nn(CCCCCCCCCCCCn3nc(-c4ccc(C)cc4)sc3=N)c(=N)s2)cc1 |
| 11.3 | 12.3 | N=c1ncc(-c2ccccc2)cn1CCCCCCCCCCCCn1cc(-c2ccccc2)cnc1=N |
| 11.7 | 145 | N=c1ncccn1CCCCCCCCCCCCn1cccnc1=N |
| 7.8 | 8150 | N=c1sc(-c2cccs2)nn1CCCCCCCCCCCCn1nc(-c2cccs2)sc1=N |
| 13.5 | 1.7 | C(CCCCCCNC1=NCCN1)CCCCCNC1=NCCN1 |
| 14.1 | 1.6 | CN(C)C(=N)NCCCCCCCCCCCCNC(=N)N(C)C |
| 7.7 | 18500 | N=c1sc(-c2cccc(Cl)c2)nn1CCCCCCCCCCCCn1nc(-c2cccc(Cl)c2)sc1=N |
| 11.7 | 50 | N=c1cc2ccc3ccccc3c2nn1CCCCCCCCCCCCn1nc2c(ccc3ccccc32)cc1=N |
| 8 | 760 | N=c1sc(-c2ccccc2)nn1CCCCCCCCCCCCn1nc(-c2ccccc2)sc1=N |
| 13.6 | 0.3 | N=C(N)CCCCCCCCCCCCC(=N)N |
| 13.5 | 2.3 | Nc1cccc[n+]1CCCCCCCCCCCC[n+]1ccccc1N |
